Source: patent US5010057A, “Renin-inhibiting peptides having an aminomethyl side chain” (Bayer Aktiengesellschaft, priority 1988, dated 1991)
Starred links: 1 amine or outer side, 2 acyl side, 3 side chain; linkers in the order of their positions; H or OH if unused. Non-standard residues stand in square brackets, D forms with d. Residues, ends and D or L forms follow the SMILES beside them. *: point of attachment. X2 = NCC(C(=O)[*:2])C(O)[C@H](CC1CCCCC1)N[*:1]; X1 = CC(C)C[C@H](N[*:1])C(O)C(CN)C(=O)[*:2]; NHCH2(2-pyridyl) = c1ccc(CN*)nc1; Boc = CC(C)(C)OC(=O)*

Target: T1, endogenous renin from human plasma (Homo sapiens, UniProt P00797)
T1 construct: endogenous renin from human plasma; from tissue; host or cells: pooled human plasma (EDTA)
T1 sequence (P00797 67-406): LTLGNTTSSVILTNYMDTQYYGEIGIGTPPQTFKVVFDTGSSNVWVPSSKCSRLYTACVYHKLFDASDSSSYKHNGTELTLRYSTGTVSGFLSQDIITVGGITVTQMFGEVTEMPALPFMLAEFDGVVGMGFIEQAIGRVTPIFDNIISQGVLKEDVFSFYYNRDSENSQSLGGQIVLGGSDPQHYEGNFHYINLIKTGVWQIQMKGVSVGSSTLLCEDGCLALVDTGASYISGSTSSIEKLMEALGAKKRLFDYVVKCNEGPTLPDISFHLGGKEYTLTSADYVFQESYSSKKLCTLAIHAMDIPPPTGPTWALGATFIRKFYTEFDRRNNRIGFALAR
Assay: In vitro test: inhibition of plasma renin activity (angiotensin I formation, radioimmunoassay)
Assay type: biochemical
Conditions: pooled human plasma, 37° C., pH 5.6; for IC50: 50% inhibition of plasma renin activity; for % Inhibition: plasma renin activity, test concentration not given
Experimental: The inhibitory strength of the peptides according to the invention against endogenous renin from human plasma is determined in vitro. Pooled human plasma is obtained with the addition of ethylenediamintetraacetic acid (EDTA) as an anticoagulant and stored at -20° C. The plasma renin activities (PRA) are determined as the rate of formation of angiotensin I from endogenous angiotensinogen and renin by incubation at 37° C. The reaction solution contains 150 μl of plasma, 3 μl of 6.6% strength 8-hydroxyquinoline sulphate solution, 3 μl of 10% strength dimercaprol solution and 144 μl of sodium phosphate buffer (0.2 M; 0.1% EDTA; pH 5.6) with or without the substances according to the invention in various concentrations. The angiotensin I formed per unit of time is determined using a radioimmunoassay (Sorin Biomedica, Italy). The percentage inhibition of the plasma renin activity is calculated by comparison of […]. The concentration range in which the substances claimed herein show a 50% inhibition of plasma renin activity is between 10^-4 to 10^-9 M.

Compound	IC50 [nM]	% Inhibition [%]
CC(C)CNC(=O)C(CN)C(O)[C@H](CC1CCCCC1)NC(=O)[C@H](Cc1c[nH]cn1)NC(=O)[C@H](Cc1ccccc1)NC(=O)OC(C)(C)C (some centres unmarked) [Example 86]	9000	92
CC[C@H](C)[C@H](NC(=O)C1CN(Cc2ccccc2)OC1[C@H](Cc1ccccc1)NC(=O)[C@H](Cc1c[nH]cn1)NC(=O)[C@H](Cc1ccccc1)NC(=O)OC(C)(C)C)C(=O)OC (some centres unmarked) [Example 31]	–	31
CC[C@H](C)[C@H](NC(=O)C(CN)C(O)[C@H](Cc1ccccc1)NC(=O)[C@H](Cc1c[nH]cn1)NC(=O)[C@H](Cc1ccccc1)NC(=O)OC(C)(C)C)C(=O)OC (some centres unmarked) [Example 77]	11000	96
CC[C@H](C)[C@H](NC(=O)C(CN)C(O)[C@H](CC1CCCCC1)NC(=O)[C@H](Cc1c[nH]cn1)NC(=O)[C@H](Cc1ccccc1)NC(=O)OC(C)(C)C)C(=O)NCc1ccccn1 (some centres unmarked) [Example 84]	92	100
CC[C@H](C)[C@H](NC(=O)C1CN(Cc2ccccc2)OC1[C@H](CC1CCCCC1)NC(=O)[C@H](Cc1c[nH]cn1)NC(=O)[C@H](Cc1ccccc1)NC(=O)OC(C)(C)C)C(=O)OC (some centres unmarked) [Example 39]	–	67
CC[C@H](C)[C@H](NC(=O)C(CN)C(O)[C@H](CC(C)C)NC(=O)[C@H](Cc1c[nH]cn1)NC(=O)[C@H](Cc1ccccc1)NC(=O)[C@@H]1CCCN1C(=O)OC(C)(C)C)C(=O)NCc1ccccn1 (some centres unmarked) [Example 97] (Boc-PFH[X1]I-{NHCH2(2-pyridyl)})	22	100
CC[C@H](C)[C@H](NC(=O)C(CN)C(O)[C@H](CC1CCCCC1)NC(=O)[C@H](Cc1c[nH]cn1)NC(=O)[C@H](Cc1ccccc1)NC(=O)[C@@H]1CCCN1C(=O)OC(C)(C)C)C(=O)NCc1ccccn1 (some centres unmarked) [Example 85] (Boc-PFH[X2]I-{NHCH2(2-pyridyl)})	240	100
CC[C@H](C)[C@H](NC(=O)C(CN)C(O)[C@H](CC(C)C)NC(=O)[C@H](Cc1c[nH]cn1)NC(=O)[C@H](Cc1ccccc1)NC(=O)OC(C)(C)C)C(=O)OC (some centres unmarked) [Example 94]	3700	100
CC[C@H](C)[C@H](NC(=O)C(CN)C(O)[C@H](CC1CCCCC1)NC(=O)[C@H](Cc1c[nH]cn1)NC(=O)[C@H](Cc1ccccc1)NC(=O)OC(C)(C)C)C(=O)OC (some centres unmarked) [Example 82]	1400	89
CC[C@H](C)[C@H](NC(=O)C(CN)C(O)[C@H](CC(C)C)NC(=O)[C@H](Cc1c[nH]cn1)NC(=O)[C@H](Cc1ccccc1)NC(=O)OC(C)(C)C)C(=O)NCc1ccccn1 (some centres unmarked) [Example 96]	1000	100
CC[C@H](C)[C@H](NC(=O)C(CN)C(O)[C@H](Cc1ccccc1)NC(=O)[C@H](Cc1c[nH]cn1)NC(=O)[C@H](Cc1ccccc1)NC(=O)OC(C)(C)C)C(=O)NCc1ccccn1 (some centres unmarked) [Example 79]	2500	95
